Source: patent US5318984A, “Imidazoles for the treatment of atherosclerosis” (priority 1992, dated 1994)

molecular target: T1, Acyl-CoA: Cholesterol Acyltransferase (ACAT) (Rattus norvegicus, UniProt Q7TQM4); experiment: Inhibition of Acyl-CoA: Cholesterol Acyltransferase (ACAT) in Hepatic Microsomes; format: biochemical, Sprague Dawley rats; details: 14C-oleoyl-CoA, pH 7.4, 37° C., read-out: In Vitro ACAT IC50
T1 construct: Microsomes were obtained by differential centrifugation; from tissue; host or cells: liver microsomes of male Sprague Dawley rats
T1 sequence (Q7TQM4 1-524): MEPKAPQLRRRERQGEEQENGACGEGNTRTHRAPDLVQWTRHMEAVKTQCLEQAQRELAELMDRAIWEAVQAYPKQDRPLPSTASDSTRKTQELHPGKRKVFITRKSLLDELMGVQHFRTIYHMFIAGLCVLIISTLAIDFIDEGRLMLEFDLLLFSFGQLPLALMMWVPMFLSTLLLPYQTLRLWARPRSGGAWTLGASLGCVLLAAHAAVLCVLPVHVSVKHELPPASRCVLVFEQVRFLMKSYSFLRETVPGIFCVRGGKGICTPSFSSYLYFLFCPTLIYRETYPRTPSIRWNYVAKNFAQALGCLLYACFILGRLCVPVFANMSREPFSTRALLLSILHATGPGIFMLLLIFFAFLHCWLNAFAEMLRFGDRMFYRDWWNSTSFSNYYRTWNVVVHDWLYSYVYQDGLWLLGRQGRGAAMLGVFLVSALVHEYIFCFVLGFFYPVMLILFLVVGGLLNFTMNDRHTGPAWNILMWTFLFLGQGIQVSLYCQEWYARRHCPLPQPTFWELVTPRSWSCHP
Procedure: A. Assay of the Inhibition of Acyl-CoA: Cholesterol Acyltransferase (ACAT) in Hepatic Microsomes
The ability of the compounds to inhibit ACAT, the enzyme responsible for the intracellular synthesis of cholesteryl esters, was tested as follows. Male Sprague Dawley rats weighing 150-300 g, were fed rat chow ad libitum. The animals were fasted for twenty-four hours prior to being sacrificed by decapitation. The livers were perfused in situ with 50 ml of cold 0.25M sucrose, excised, and homogenized in three volumes of 0.1M phosphate buffer, pH 7.4, that contained 0.5 mM EDTA (ethylenediaminetetraacetic acid), 1.0 mM glutathione, 0.25M sucrose and […]. Microsomes were obtained by differential centrifugation; the supernatant from an initial spin at 15,000×g for 15 minutes was centrifuged at 105,000×g for 1 hour to pellet the microsomes. The microsomes were suspended in homogenization buffer, reisolated by centrifugation, and stored at -70° C. Microsomes were used within one month of preparation.
The control assay in a final volume of 200 μl consisted of 200 μg of microsomal protein, 75 μM ^14 C-oleoyl-CoA (10,000 dpm/nmol) in 0.1M phosphate, pH 7.4, that contained 1 mM glutathione. Compounds were added in 5 μl of DMSO (dimethyl sulfoxide) and additional controls were run with DMSO only. All components, except the oleoyl-CoA, were preincubated for 15 min. at 37° C. prior to the initiation of the reaction by the addition of oleoyl-CoA. The assay was terminated after 10 min by the addition of 4 ml of chloroform:methanol (2:1, v/v). 20,000 dpm of 3H-cholesteryl oleate and 10 μg of unlabeled cholesteryl oleate and oleic acid were added as an internal standard and carriers, respectively. After allowing 10 min. for lipid extraction, the samples were centrifuged at 1,000×g for 10 min. to separate the solvent layers. The chloroform layer containing the neutral lipids was spotted onto a Baker SI250-Pa silica gel TLC plate and the plate developed using a hexane: diethyl ether: acetic acid (170:30:1 v/v/v) mobile phase. The lipids were visualized by their interaction with iodine vapor and the cholesteryl ester spot was scraped into a scintillation vial and counted.

Question: For `CCCCCCCN(CCCCCCCCSc1nc(-c2ccccc2)c(-c2ccccc2)[nH]1)C(=O)Nc1ccc(F)cc1F` [Example 3, N'-(2,4-difluorophenyl)-N-[8-(4,5-diphenyl-1H-imidazol-2-ylthio)octyl]-N-heptylurea], which IC50 is on record?
Answer: 0.008 µM

Question: With `CCCCCCCN(CCCCCSc1nc(-c2ccccc2)c(-c2ccccc2)n1C)C(=O)Nc1ccc(F)cc1F` [Example 6, N'-(2,4-difluorophenyl)-N-heptyl-N-[5-(1-methyl-4,5-diphenyl-1H-imidazol-2-ylthio]pentyl]urea] as the molecule, how does the IC50 read?
Answer: 3.6 µM

Question: For `CCCCCCCN(CCCCCSc1nc(-c2ccccc2)c(-c2ccccc2)[nH]1)C(=O)NCCC` [Example 8, N-[5-(4,5-diphenyl-1H-imidazol-2-ylthio)pentyl]-N-heptyl-N'-propylurea], which IC50 is on record?
Answer: 0.01 µM

Question: For `CCCCCCCN(CCCCCSc1nc(-c2ccccc2)c(-c2ccccc2)[nH]1)C(=O)NC1CCCCC1` [Example 94, N'-cyclohexyl-N-[5-(4,5-diphenyl-1H-imidazol-2-ylthio)pentyl]-N-heptylurea], which IC50 is on record?
Answer: 0.01 µM

Question: How did the IC50 turn out when `CCCCCCCN(CCCCCSc1nc(-c2ccccc2)c(-c2ccccc2)[nH]1)C(=O)NC(C)C` [Example 105, N-[5-(4,5-diphenyl-1H-imidazol-2-ylthio)pentyl]-N-heptyl-N'-(1-methylethyl)urea] was run?
Answer: 0.02 µM

Question: Which IC50 does the source give for `CCCCCCCN(CCSc1nc(-c2ccccc2)c(-c2ccccc2)[nH]1)C(=O)Nc1ccc(F)cc1F` [Example 189, N'-(2,4-difluorophenyl)-N-[2-(4,5-diphenyl-1H-imidazol-2-ylthio)ethyl]-N-heptylurea] here?
Answer: 0.07 µM

Question: Which IC50 does the source give for `CCCN(CCCCCSc1nc(-c2ccccc2)c(-c2ccccc2)[nH]1)C(=O)Nc1ccc(F)cc1F` [Example 190] here?
Answer: 0.03 µM

Question: For `CCCCCCCN(CCCCCSc1nc(-c2ccccc2)c(-c2ccccc2)[nH]1)C(=O)Nc1ccc(-c2ccccc2)cc1` [Example 192, N'-[(1,1'-biphenyl)-4-yl]-N-[5-(4,5-diphenyl-b 1H-imidazol-2-ylthio)pentyl]-N-heptylurea], which IC50 is on record?
Answer: 0.07 µM

Question: For `CCCCCCCCNC(=O)N(CCCCCSc1nc(-c2ccccc2)c(-c2ccccc2)[nH]1)c1ccc(F)cc1F` [Example 206, N-(2,4-difluorophenyl)-N-[5-(4,5-diphenyl-1H-imidazol-2-ylthio)pentyl]-N'-octylurea], which IC50 is on record?
Answer: 0.04 µM

Question: `CCCCCCCCNC(=O)N(CCCCCSc1nc(-c2ccccc2)c(-c2ccccc2)[nH]1)c1c(F)cc(F)cc1F` [Example 208] was tested. Which IC50 did it give?
Answer: 0.02 µM

Question: With `CC(C)NC(=O)N(CCCCCSc1nc(-c2ccccc2)c(-c2ccccc2)[nH]1)c1ccccc1` [Example 261] as the molecule, how does the IC50 read?
Answer: 0.08 µM

Question: For `CC(C)NC(=O)N(CCCCCSc1nc(-c2ccccc2)c(-c2ccccc2)[nH]1)c1ccc(F)cc1F` [Example 263], which IC50 is on record?
Answer: 0.04 µM

Question: Which IC50 does the source give for `CCCCCCCN(CCCCCSc1nc(-c2ccccc2)c(-c2ccccc2)[nH]1)C(=O)Nc1c(C(C)C)cccc1C(C)C` [Example 266] here?
Answer: 0.23 µM

Question: For `CCCCCCCN(CCCCCSc1nc(-c2ccccc2)c(-c2ccccc2)[nH]1)C(=S)Nc1ccc(F)cc1F` [Example 276, N'-(2,4-difluorophenyl]-N-[5-(4,5-diphenyl-1H-imidazol-2-ylthio)pentyl]-N-heptylthiourea], which IC50 is on record?
Answer: 0.058 µM

Question: `CCCCCCCN(CCCCC[S+]([O-])c1nc(-c2ccccc2)c(-c2ccccc2)[nH]1)C(=O)Nc1ccc(F)cc1F` (stereo not drawn) [Example 278, N'-(2,4-difluorophenyl)-N-[5-(4,5-diphenyl-1H-imidazol-2-ylsulfinyl)pentyl]-N-heptylurea] was tested. Which IC50 did it give?
Answer: 0.008 µM

Question: `CCCCCCCN(CCCCCS(=O)(=O)c1nc(-c2ccccc2)c(-c2ccccc2)[nH]1)C(=O)Nc1ccc(F)cc1F` [Example 281, N'-(2,4-difluorophenyl)-N-[5-[(4,5-diphenyl-1H-imidazol-2-yl)sulfonyl]pentyl]-N-heptylurea] was tested. Which IC50 did it give?
Answer: 0.016 µM

Question: How did the IC50 turn out when `CCCCCCCN(CCCCCSc1nc(-c2ccccc2)c(-c2ccccc2)[nH]1)C(=S)Nc1c(F)cc(F)cc1F` [Example 298, N-[5-(4,5-diphenyl-1H-imidazol-2-ylthio)pentyl]N-heptyl-N'-(2,4,6-trifluorophenyl)thiourea] was run?
Answer: 0.03 µM

Question: For `CCCCCCCN(CCCCCNc1nc(-c2ccccc2)c(-c2ccccc2)[nH]1)C(=O)Nc1ccc(F)cc1F` [Example 338, N' -(2,4-difluorophenyl)-N-[5-(4,5-diphenyl-1H-imidazol-2-ylamino)pentyl]-N-heptylurea], which IC50 is on record?
Answer: 3.5 µM

Question: How did the IC50 turn out when `CCCCCCCN(CCCCCCc1nc(-c2ccccc2)c(-c2ccccc2)[nH]1)C(=O)Nc1ccc(F)cc1F` [Example 339, N'-(2,4-difluorophenyl)-N-[6-(4,5-diphenyl-1H-imidazol-2-yl)hexyl]-N-heptylurea] was run?
Answer: 0.28 µM

Question: For `CCCCCCCN(CCCCCSc1nc(-c2ccccc2)c(-c2ccccc2)[nH]1)C(=O)Cc1ccc(F)cc1F` [Example 340, 2,4-difluoro-N-[(5-(4,5-diphenyl-1H-imidazol-2-ylthio)pentyl)]-N-heptylbenzeneacetamide], which IC50 is on record?
Answer: 0.025 µM

Question: How did the IC50 turn out when `CCCCCCCN(CCCCCSc1nc(-c2ccccc2)c(-c2ccccc2)[nH]1)C(=O)Cc1ccc(-c2ccccc2)cc1` [Example 343, N-[5-(4,5-diphenyl-1H-imidazol-2-ylthio)pentyl]-N-heptyl[1,1'-biphenyl]-4-acetamide] was run?
Answer: 0.16 µM

Question: With `CCCCCCCN(CCCCCSc1nc(-c2ccccc2)c(-c2ccccc2)[nH]1)C(=O)CC1CCCCC1` [Example 344] as the molecule, how does the IC50 read?
Answer: 0.03 µM

Question: With `CCCCCCCN(CCCCCSc1nc(-c2ccccc2)c(-c2ccccc2)[nH]1)C(=O)c1ccc(F)cc1F` [Example 345] as the molecule, how does the IC50 read?
Answer: 0.06 µM

Question: `CCCCCCCN(CCCCCSc1nc(-c2ccccc2)c(-c2ccccc2)[nH]1)C(=O)c1ccccc1` [Example 346] was tested. Which IC50 did it give?
Answer: 0.05 µM

Question: For `CCCCCCCN(CCCCCSc1nc(-c2ccccc2)c(-c2ccccc2)[nH]1)C(=O)OC1CCCCC1` [Example 401, cyclohexyl [5-(4,5-diphenyl-1H-imidazol-2-ylthio)pentyl]heptylcarbamate], which IC50 is on record?
Answer: 0.05 µM

Question: Which IC50 does the source give for `CCCCCCCN(CCCCCSc1nc(-c2ccccc2)c(-c2ccccc2)[nH]1)C(=O)Oc1ccccc1` [Example 402, Phenyl [5-(4,5-diphenyl-1H-imidazol-2-ylthio)pentyl]heptylcarbamate] here?
Answer: 0.02 µM

Question: For `CCCCCCCN(CCCCCSc1nc(-c2ccccc2)c(-c2ccccc2)[nH]1)C(=N)Nc1ccccc1` [Example 499, N-[5-(4,5-diphenyl-1H-imidazol-2-ylthio)pentyl]-N-heptyl-N'-phenylguanidin], which IC50 is on record?
Answer: 3.16 µM
